≈ marks a conversion by molar mass, not a printed value. Where “and” joins values, the source holds several entries; their conditions need not be identical. Equal entries are not always repeated. Where two headings read alike, the source gives them in different places.
Tests used:
[1] = system: Staphylococcus aureus 3055; assay: MIC, standard agar-dilution test (Table XI); format: cell-based; settings: aerobic, S. aureus 3055, sodium salt form
[2] = system: Group D Streptococcus 282; assay: MIC, standard agar-dilution test (Table XI); format: cell-based; settings: aerobic, sodium salt form
[3] = system: Streptococcus pyogenes C203; assay: MIC, standard agar-dilution test (Table XI); format: cell-based; settings: aerobic, S. pyogenes C203, sodium salt form
[4] = system: Streptococcus pneumoniae Park I; assay: MIC, standard agar-dilution test (Table XI); format: cell-based; settings: aerobic, S. pneumoniae Park I, sodium salt form
[5] = system: Viridans Streptococcus 9943; assay: MIC, standard agar-dilution test (Table XI); format: cell-based; settings: aerobic, sodium salt form
[6] = system: Neisseria gonorrhoeae 111076-4; assay: MIC, standard agar-dilution test (Table XI); format: cell-based; settings: aerobic, N. gonorrhoeae 111076-4, sodium salt form
[7] = system: Staphylococcus aureus 3055; assay: MIC, standard broth-dilution test (Table XII); format: cell-based; settings: aerobic, S. aureus 3055
[8] = system: Group D Streptococcus 282; assay: MIC, standard broth-dilution test (Table XII); format: cell-based; settings: aerobic
[9] = system: Streptococcus pyogenes C203; assay: MIC, standard broth-dilution test (Table XII); format: cell-based; settings: aerobic, S. pyogenes C203
[10] = system: Streptococcus pneumoniae Park I; assay: MIC, standard broth-dilution test (Table XII); format: cell-based; settings: aerobic, S. pneumoniae Park I
[11] = system: Viridans Streptococcus 9943; assay: MIC, standard broth-dilution test (Table XII); format: cell-based; settings: aerobic
Staphylococcus aureus [12] = assay: MIC against clinical isolates, ICS agar-dilution (Table XIII); format: cell-based; settings: 10 clinical isolates, bracket = number of isolates with this MIC or range
[13] = system: Staphylococcus epidermidis; assay: as above; format: cell-based; settings: 12 clinical isolates, bracket = number of isolates with this MIC or range
Actinomyces israelii = assay: MIC against anaerobic bacteria, standard agar-dilution (Table XIV); format: cell-based; settings: anaerobe
Clostridium septicum = assay: as above; format: cell-based; settings: anaerobe
Eubacterium aerofaciens = assay: as above; format: cell-based; settings: anaerobe
[14] = system: Peptococcus asaccharolyticus; assay: as above; format: cell-based; settings: anaerobe
Peptococcus prevoti = assay: as above; format: cell-based; settings: anaerobe
[15] = system: Peptostreptococcus anaerobius; assay: as above; format: cell-based; settings: anaerobe
[16] = system: Peptostreptococcus intermedius; assay: as above; format: cell-based; settings: anaerobe
Propionibacterium acnes = assay: as above; format: cell-based; settings: anaerobe
Bacteroides fragilis = assay: as above; format: cell-based; settings: anaerobe
Fusobacterium symbiosum = assay: as above; format: cell-based; settings: anaerobe
[17] = system: Fusobacterium necrophorum; assay: as above; format: cell-based; settings: anaerobe
Staphylococcus aureus [18] = assay: MIC, agar dilution (Table XV); format: cell-based
Description: (§1) ^1 MIC = minimum inhibitory concentration (μg/ml), agar dilution

Streptococcus pneumoniae [19] = assay: MIC, agar dilution (Table XV); format: cell-based
Description: as §1

Streptococcus pyogenes [20] = assay: MIC, agar dilution (Table XV); format: cell-based
Description: as §1

Staphylococcus aureus [21] = assay: Experimental bacterial infection in mice, ED50; format: in vivo; settings: S. aureus infection, two doses, subcutaneous administration
Method: (§2) When two doses of test compound were administered to mice in illustrative infections, the activity observed as measured as an ED50 value [effective dose in mg/kg to protect fifty percent of the test animals: See Warren Wick, et al., J. Bacteriol, 81, 233-235 (1961)].

Streptococcus pneumoniae [22] = assay: Experimental bacterial infection in mice, ED50; format: in vivo; settings: S. pneumoniae infection, two doses, subcutaneous administration
Method: as §2

Streptococcus pyogenes [23] = assay: Experimental bacterial infection in mice, ED50; format: in vivo; settings: S. pyogenes infection, two doses
Method: as §2

[24] = system: Streptococcus faecalis (Guze); assay: In vitro susceptibility (MIC) of the S. faecalis Guze strain; format: cell-based
Description: ^1 In vitro susceptibility of the S. faecalis Guze strain

[25] = Electrometric titration in 66% aqueous dimethylformamide; format: physicochemical; settings: 66% DMF, Na salt forms; factors: two determinations
Clostridium perfringens = settings: anaerobe, agar-dilution
[26] = Mouse
[27] = Rat, IV
Micrococcus luteus = assay: Paper-disc agar-diffusion bioassay; settings: individual factors, Na salts
[28] = system: Streptococcus faecalis (Guze); assay: Streptococcus faecalis descending rat pyelonephritis test; settings: 1.0 mg/kg x 7 subcutaneous; for Percent of Rats Cured: cure = kidney counts less than 10^2 per g; for Percent of Rats with a 4-Log Titer Decrease: once daily, kidney titer vs infected controls

CCC(C)CCCCCCC(=O)N[C@@H](Cc1c[nH]c2ccccc12)C(=O)NC(CC(N)=O)C(=O)N[C@@H](CC(=O)O)C(=O)N[C@@H]1C(=O)NCC(=O)N[C@@H](CCCN)C(=O)N[C@@H](CC(=O)O)C(=O)N[C@H](C)C(=O)N[C@@H](CC(=O)O)C(=O)NCC(=O)N[C@H](CO)C(=O)N[C@@H]([C@H](C)CC(=O)O)C(=O)N[C@@H](CC(=O)c2ccccc2N)C(=O)O[C@@H]1C (stereo in doubt) [Factor C1] showed an MIC [1] of 0.5 µg/mL, an MIC [2] of 1.0 µg/mL and an MIC [3] of 0.13 µg/mL. The MIC [4] was 0.13 µg/mL, the MIC [5] was 0.5 µg/mL and the MIC [6] was 16.0 µg/mL. It also gave an MIC [7] of 1.0 µg/mL (≈ 0.612 µM), an MIC [8] of 2.0 µg/mL (≈ 1.22 µM) and an MIC [9] of 0.5 µg/mL (≈ 0.306 µM). For the same molecule, the MIC [10] was 2.0 µg/mL (≈ 1.22 µM), the MIC [11] was 32.0 µg/mL (≈ 19.6 µM) and the “Minimum Inhibitory Concentration” value (Staphylococcus aureus [12]) was 0.5 µg/mL. The “Minimum Inhibitory Concentration” value [13] was 0.13 to 0.25 µg/mL, the MIC (Actinomyces israelii) was 4 µg/mL (≈ 2.45 µM) and the MIC (Clostridium septicum) was 4 µg/mL (≈ 2.45 µM). It also gave an MIC (Eubacterium aerofaciens) of 16 µg/mL (≈ 9.79 µM), an MIC [14] of 4 µg/mL (≈ 2.45 µM) and an MIC (Peptococcus prevoti) of 2 µg/mL (≈ 1.22 µM). The MIC [15] was 2 µg/mL (≈ 1.22 µM), the MIC [16] was 4 µg/mL (≈ 2.45 µM) and the MIC (Propionibacterium acnes) was 8 µg/mL (≈ 4.89 µM). The MIC (Bacteroides fragilis) was > 128 µg/mL, the MIC (Fusobacterium symbiosum) was > 128 µg/mL and the MIC [17] was 64 µg/mL (≈ 39.2 µM). For the same molecule, the MIC (Staphylococcus aureus [18]) was 0.5 µg/mL (≈ 0.306 µM), the MIC (Streptococcus pneumoniae [19]) was 0.13 µg/mL (≈ 0.0795 µM) and the MIC (Streptococcus pyogenes [20]) was 0.13 µg/mL (≈ 0.0795 µM). It also gave an ED50 (Staphylococcus aureus [21]) of 0.22 mg/kg, an ED50 (Streptococcus pneumoniae [22]) of 0.3 mg/kg and an ED50 (Streptococcus pyogenes [23]; oral administration) of 93 mg/kg. The ED50 (Streptococcus pyogenes [23]; subcutaneous administration) was 0.064 mg/kg, the MIC [24] was 1.0 µg/mL (≈ 0.612 µM) and the “pKa Values (first group)” value [25] was 5.7 and 5.9. The MIC (Clostridium perfringens) was 16 µg/mL (≈ 9.79 µM), the LD50 ([26]; IV) was > 250 mg/kg and the LD50 ([26]; SC) was > 365 mg/kg. The LD50 [27] was 479 ± 32 mg/kg, the “Bioassay (Micrococcus luteus)” value (Micrococcus luteus) was 1663 units/mg and the “Percent of Rats Cured” value [28] was 50. For the same molecule, the “Percent of Rats with a 4-Log Titer Decrease” value [28] was 50.

Molecule CC(C)CCCCCCCCC(=O)NC(Cc1c[nH]c2ccccc12)C(=O)NC(CC(N)=O)C(=O)NC(CC(=O)O)C(=O)NC1C(=O)NCC(=O)NC(CCCN)C(=O)NC(CC(=O)O)C(=O)NC(C)C(=O)NC(CC(=O)O)C(=O)NCC(=O)NC(CO)C(=O)NC(C(C)CC(=O)O)C(=O)NC(CC(=O)c2ccccc2N)C(=O)OC1C (centres unmarked) [Factor C2] has an MIC [1] of 0.13 µg/mL, an MIC [2] of 0.25 µg/mL and an MIC [3] of 0.13 µg/mL. The MIC [4] was 0.25 µg/mL, the MIC [5] was 1.0 µg/mL and the MIC [6] was 4.0 µg/mL. For the same molecule, the MIC [7] was 0.5 µg/mL (≈ 0.303 µM), the MIC [8] was 1.0 µg/mL (≈ 0.607 µM) and the MIC [9] was 0.25 µg/mL (≈ 0.152 µM). The MIC [10] was 1.0 µg/mL (≈ 0.607 µM), the MIC [11] was 16.0 µg/mL (≈ 9.7 µM) and the “Minimum Inhibitory Concentration” value (Staphylococcus aureus [12]) was 0.12 to 0.25 µg/mL. For the same molecule, the MIC (Actinomyces israelii) was 1.0 µg/mL (≈ 0.607 µM), the MIC (Clostridium septicum) was 1.0 µg/mL (≈ 0.607 µM) and the MIC (Eubacterium aerofaciens) was 8 µg/mL (≈ 4.85 µM). For the same molecule, the MIC [14] was 2 µg/mL (≈ 1.21 µM), the MIC (Peptococcus prevoti) was 1.0 µg/mL (≈ 0.607 µM) and the MIC [15] was 1.0 µg/mL (≈ 0.607 µM). The MIC [16] was 1.0 µg/mL (≈ 0.607 µM), the MIC (Propionibacterium acnes) was 2 µg/mL (≈ 1.21 µM) and the MIC (Bacteroides fragilis) was > 128 µg/mL. For the same molecule, the MIC (Fusobacterium symbiosum) was > 128 µg/mL, the MIC [17] was 64 µg/mL (≈ 38.8 µM) and the MIC (Staphylococcus aureus [18]) was 0.13 µg/mL (≈ 0.0788 µM). For the same molecule, the MIC (Streptococcus pneumoniae [19]) was 0.13 µg/mL (≈ 0.0788 µM), the MIC (Streptococcus pyogenes [20]) was 0.13 µg/mL (≈ 0.0788 µM) and the ED50 (Staphylococcus aureus [21]) was 0.16 mg/kg. It also gave an ED50 (Streptococcus pneumoniae [22]) of 0.14 mg/kg, an ED50 (Streptococcus pyogenes [23]; oral administration) of 59 mg/kg and an ED50 (Streptococcus pyogenes [23]; subcutaneous administration) of 0.032 mg/kg. For the same molecule, the MIC [24] was 0.25 µg/mL (≈ 0.152 µM), the “pKa Values (first group)” value [25] was 5.8 and 5.93 and the “pKa Values (second group)” value [25] was 7.6 and 7.63. The MIC (Clostridium perfringens) was 8 µg/mL (≈ 4.85 µM), the LD50 ([26]; IV) was 150 to 250 mg/kg and the LD50 ([26]; SC) was 175 mg/kg. The LD50 [27] was 204 ± 17 mg/kg, the “Bioassay (Micrococcus luteus)” value (Micrococcus luteus) was 1390 units/mg and the “Percent of Rats Cured” value [28] was 89. For the same molecule, the “Percent of Rats with a 4-Log Titer Decrease” value [28] was 100.

— patent publication USRE32333E, “A-21978 Antibiotics and process for their production” (priority 1985, dated 1987)
